Patent US20250011311A1, “AMIDO HETEROAROMATIC COMPOUNDS” (AstraZeneca AB, priority 2022, published 2025)

Key:
[1] = target: over expressed HSD17β9 in HEK293S cells (Homo sapiens (Human), UniProt Q92781); test: In Vitro 17bHSD9 Cell Assay; type: cell-based; conditions: HEK293S cells over expressing HSD17β9; retinol to retinal conversion, 18 h, LC-MS/MS; read-out: 17bHSD9 Cell assay IC50
Method in brief: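 HEK293S cells overexpressing HSD17β9 were plated at 10K cells/well in DMEM + 10% FBS and cultured 18 h. Retinol-to-retinal conversion in media was quantified by LC-MS/MS (MRM) as retinal/(retinal + retinol). IC50 was fitted after normalisation to DMSO and full inhibition by a reference inhibitor.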

[2] = target: recombinant 17bHSD4 (M1-N311) (Homo sapiens (Human), UniProt P51659); test: In Vitro 17bHSD4 Enzyme Assay; type: biochemical; conditions: 40 nM 17bHSD4, 0.125 mM NAD, 15 μM Estradiol, 1.5 h; NADH fluorescence; read-out: 17HSD17b4 Enzyme assay IC50
CYP2C9 = CYP2C9 (Homo sapiens (Human), UniProt P11712); test: Assay B: Cytochrome P450 Inhibition 2C9
Experimental: A fluorescence-based method in 96-well format was used to determine the inhibition of 2C9 (Crespi, C. L. et al., Microtiter plate assays for inhibition of human, drug-metabolizing cytochromes P450. Anal Biochem 1997, 248 (1), 188-190. DOI: 10.1006/abio.1997.2145, which is incorporated herein by reference). The recombinant human enzymes used were prepared in house, except for CYP2D6 (CYPEX LTD, Dundee, UK). Different coumarin substrates, biotransformed into fluorescent metabolites, were used as probes for each individual CYP. A fluorescence plate reader (SPECTRAMAX GEMINIXS, MOLECULAR DEVICES, Sunnyvale, California, USA) was used to measure the levels of metabolites formed. A dilution series of the test substrates was prepared at eight different concentrations. For each CYP, a mixture of the enzyme, corresponding coumarin substrate, potassium phosphate buffer pH 7.4 and water (concentrations and volumes were CYP-dependent) were added to each well in a black 96-well plate. The test substrates at different concentrations were added. After 10 min pre-incubation, the co-factor NADPH was added to initiate the reaction. After 20-50 min (CYP and substrate-dependent) the reaction was terminated by addition of trisbase/MeCN (20:80). The plates were transferred to the fluorescence plate reader where the wavelengths were set individually for the different coumarin substrates and their respective fluorescent metabolite. The responses were exported to Excel where the IC50 curves were plotted (percent inhibition versus concentration) and IC50 values calculated for each test substrate and enzyme using XL-fit.

human hepatocytes = test: Assay A: Metabolic Stability in Human Hepatocytes; type: in vitro ADME; conditions: cryopreserved human hepatocytes, 10^6 viable cells/mL, 1 μM compound, 37° C.
Method in brief: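 Cryopreserved hepatocytes (10^6 viable cells/mL) at 37° C with 1 μM test compound, sampled 0.5–120 min and quenched in MeCN. Parent measured by LC-MS/MS; CLint (μL/min/10^6 cells) from the slope of ln(parent concentration) vs time.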

recombinant 17bHSD4 (M1-N311), sequence (P51659 1-311): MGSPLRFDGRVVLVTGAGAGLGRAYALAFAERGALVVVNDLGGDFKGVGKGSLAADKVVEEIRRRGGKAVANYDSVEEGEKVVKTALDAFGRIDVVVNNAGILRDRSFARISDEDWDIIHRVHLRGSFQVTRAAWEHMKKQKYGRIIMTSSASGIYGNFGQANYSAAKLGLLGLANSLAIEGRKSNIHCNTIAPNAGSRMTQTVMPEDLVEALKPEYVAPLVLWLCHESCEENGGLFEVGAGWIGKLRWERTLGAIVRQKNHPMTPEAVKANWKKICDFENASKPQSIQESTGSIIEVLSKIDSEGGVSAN
CYP2C9, sequence (P11712 whole entry): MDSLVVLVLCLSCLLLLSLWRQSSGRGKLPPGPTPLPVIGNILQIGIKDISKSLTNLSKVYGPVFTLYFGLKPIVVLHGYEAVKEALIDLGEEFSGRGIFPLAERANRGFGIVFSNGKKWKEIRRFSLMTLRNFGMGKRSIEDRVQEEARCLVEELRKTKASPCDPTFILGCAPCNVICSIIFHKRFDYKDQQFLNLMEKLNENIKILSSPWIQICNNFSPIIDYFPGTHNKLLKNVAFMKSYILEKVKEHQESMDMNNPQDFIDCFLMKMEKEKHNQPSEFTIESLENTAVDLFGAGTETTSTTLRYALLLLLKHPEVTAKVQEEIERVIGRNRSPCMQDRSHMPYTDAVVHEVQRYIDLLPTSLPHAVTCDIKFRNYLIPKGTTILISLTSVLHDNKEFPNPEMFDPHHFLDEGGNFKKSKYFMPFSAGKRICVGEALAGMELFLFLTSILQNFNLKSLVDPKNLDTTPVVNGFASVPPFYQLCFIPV
over expressed HSD17β9 in HEK293S cells, sequence (Q92781 whole entry): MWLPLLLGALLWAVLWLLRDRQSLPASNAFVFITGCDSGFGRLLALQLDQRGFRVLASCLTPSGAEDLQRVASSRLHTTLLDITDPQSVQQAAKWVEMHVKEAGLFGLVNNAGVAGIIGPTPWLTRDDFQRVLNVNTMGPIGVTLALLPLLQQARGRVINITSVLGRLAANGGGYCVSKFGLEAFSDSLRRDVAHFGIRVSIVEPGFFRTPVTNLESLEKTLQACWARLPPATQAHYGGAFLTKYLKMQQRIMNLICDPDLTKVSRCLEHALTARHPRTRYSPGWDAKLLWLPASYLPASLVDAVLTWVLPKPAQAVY

SMILES	IC50 [1]	IC50 [2]	IC50 (CYP2C9)	Assay A: Human Heps Met Clint GMean CLint (μl/min/1E6) (human hepatocytes)
COc1cccc(N2CCN(C(=O)c3noc(-c4cc(F)c(F)c(O)c4F)c3C#N)CC2)c1 [Example 16, 3-(4-(3-Methoxyphenyl)piperazine-1-carbonyl)-5-(2,4,5-trifluoro-3-hydroxyphenyl)isoxazole-4-carbonitrile]	> 50 µM	15.4 µM	0.8 µM	56.8 μl/min/1E6
O=C(c1noc(-c2cc(F)c(F)c(O)c2F)n1)N1CC(c2ccc(F)cc2)C1 [Example 74, (3-(4-Fluorophenyl)azetidin-1-yl)(5-(2,4,5-trifluoro-3-hydroxyphenyl)-1,2,4-oxadiazol-3-yl)methanone]	> 50 µM	21.1 µM	1.8 µM	14.4 μl/min/1E6
N#Cc1ccc2c(c1)CN(C(=O)c1noc(-c3cc(F)c(F)c(O)c3F)n1)CC2 [Example 86, 2-(5-(2,4,5-Trifluoro-3-hydroxyphenyl)-1,2,4-oxadiazole-3-carbonyl)-1,2,3,4-tetrahydroisoquinoline-7-carbonitrile]	21.1 µM	8.5 µM	4 µM	12.3 μl/min/1E6
C[C@@H]1CN(C(=O)c2noc(-c3cc(F)c(F)c(O)c3F)n2)C[C@H](C)O1 [Example 87, ((2R,6S)-2,6-Dimethylmorpholino)(5-(2,4,5-trifluoro-3-hydroxyphenyl)-1,2,4-oxadiazol-3-yl)methanone]	36.3 µM	> 200 µM	15.4 µM	2.7 μl/min/1E6
O=C(c1noc(-c2cc(C(F)(F)F)[nH]c(=O)c2)n1)N1CCC(c2ccccc2)C1 (stereo not shown) [Example 9, 4-(3-(3-Phenylpyrrolidine-1-carbonyl)-1,2,4-oxadiazol-5-yl)-6-(trifluoromethyl)pyridin-2(1H)-one]	24.9 µM	> 50 µM	5.7 µM	262.2 μl/min/1E6
CC(C)[C@H]1CN(C(=O)c2noc(-c3cc(F)c(F)c(O)c3F)n2)C[C@@H](C)O1 (racemic) [Example 122, rac-((2R,6S)-2-isopropyl-6-methylmorpholino)(5-(2,4,5-trifluoro-3-hydroxyphenyl)-1,2,4-oxadiazol-3-yl)methanone]	8.3 µM	> 50 µM	4.4 µM	8.8 μl/min/1E6
O=C(c1noc(-c2cc(F)c(F)c(O)c2F)n1)N1CCOC2(CC2)C1 [Example 118, (4-Oxa-7-azaspiro[2.5]octan-7-yl)(5-(2,4,5-trifluoro-3-hydroxyphenyl)-1,2,4-oxadiazol-3-yl)methanone]	> 50 µM	> 50 µM	7.8 µM	4.6 μl/min/1E6
C[C@@H]1C[C@H](C)CN(C(=O)c2noc(-c3cc(F)c(F)c(O)c3F)n2)C1 [Example 37, ((3R,5S)-3,5-Dimethylpiperidin-1-yl)(5-(2,4,5-trifluoro-3-hydroxyphenyl)-1,2,4-oxadiazol-3-yl)methanone]	10 µM	30.5 µM	7.8 µM	6.7 μl/min/1E6
CC(C)CC1CN(C(=O)c2noc(-c3cc(F)c(F)c(O)c3F)n2)CCO1 (stereo not shown) [Example 47, (2-Isobutylmorpholino)(5-(2,4,5-trifluoro-3-hydroxyphenyl)-1,2,4-oxadiazol-3-yl)methanone]	2.1 µM	47.4 µM	1 µM	17.4 μl/min/1E6
Cn1nnc(-c2cnc(N3CCN(C(=O)c4noc(-c5cc(F)c(F)c(O)c5F)n4)CC3)c(Cl)c2)n1 [Example 67, (4-(3-Chloro-5-(2-methyl-2H-tetrazol-5-yl)pyridin-2-yl)piperazin-1-yl)(5-(2,4,5-trifluoro-3-hydroxyphenyl)-1,2,4-oxadiazol-3-yl)methanone]	> 50 µM	4 µM	3 µM	6.6 μl/min/1E6
C[C@@H]1CN(C(=O)c2ccc(-c3cc(F)c(F)c(O)c3F)s2)C[C@H](C)O1 [Example 3, ((2R,6S)-2,6-Dimethylmorpholino)(5-(2,4,5-trifluoro-3-hydroxyphenyl)thiophen-2-yl)methanone]	> 50 µM	31.5 µM	1.6 µM	
C[C@@H]1CN(C(=O)c2noc(-c3cc(F)c(F)c(O)c3F)n2)C[C@H](C)N1 [Example 119, ((3R,5S)-3,5-Dimethylpiperazin-1-yl)(5-(2,4,5-trifluoro-3-hydroxyphenyl)-1,2,4-oxadiazol-3-yl)methanone]	> 50 µM	> 50 µM	12.3 µM	1.0 μl/min/1E6
O=C(c1noc(-c2cc(F)c(F)c(O)c2F)n1)N1CCO[C@H]2CCC[C@H]21 [Example 112, ((4aR,7aS)-Hexahydrocyclopenta[b][1,4]oxazin-4(4aH)-yl)(5-(2,4,5-trifluoro-3-hydroxyphenyl)-1,2,4-oxadiazol-3-yl)methanone]	32.4 µM	> 50 µM	5.4 µM	7.4 μl/min/1E6
O=C(c1noc(-c2cc(F)c(F)c(O)c2F)n1)N1CC[C@H](Oc2ccccc2)C1 [Example 93, (S)-(3-Phenoxypyrrolidin-1-yl)(5-(2,4,5-trifluoro-3-hydroxyphenyl)-1,2,4-oxadiazol-3-yl)methanone]	40.3 µM	22.2 µM	1.3 µM	15.6 μl/min/1E6
O=C(c1noc(-c2ccc(F)c(O)c2)n1)N1CC[C@H](c2ccccc2)C1 [Example 11, (R)-(5-(4-Fluoro-3-hydroxyphenyl)-1,2,4-oxadiazol-3-yl)(3-phenylpyrrolidin-1-yl)methanone]	> 50 µM	> 50 µM	12.8 µM	>300 μl/min/1E6
CC1CN(C(=O)c2noc(-c3cc(F)c(F)c(O)c3F)n2)CC(C)(C)O1 (stereo not shown) [Example 117, (5-(2,4,5-Trifluoro-3-hydroxyphenyl)-1,2,4-oxadiazol-3-yl)(2,2,6-trimethylmorpholino)methanone]	> 50 µM	39.9 µM	4.9 µM	4.2 μl/min/1E6
O=C(c1ccc(-c2cc(F)c(F)c(O)c2F)s1)N1CC[C@H](c2ccccc2)C1 [Example 33, (R)-(3-Phenylpyrrolidin-1-yl)(5-(2,4,5-trifluoro-3-hydroxyphenyl)thiophen-2-yl)methanone]	> 50 µM	8.5 µM	0.2 µM	124.3 μl/min/1E6
C[C@@H]1CN(C(=O)c2cc(-c3cc(F)c(F)c(O)c3F)on2)C[C@H](C)O1 [Example 89, ((2R,6S)-2,6-Dimethylmorpholino)(5-(2,4,5-trifluoro-3-hydroxyphenyl)isoxazol-3-yl)methanone]	> 50 µM	> 50 µM	3.7 µM	14.6 μl/min/1E6
O=C(c1noc(-c2cc(F)c(F)c(O)c2F)n1)N1CCN(CCOc2ccc(Br)cn2)CC1 [Example 69, (4-(2-((5-Bromopyridin-2-yl)oxy)ethyl)piperazin-1-yl)(5-(2,4,5-trifluoro-3-hydroxyphenyl)-1,2,4-oxadiazol-3-yl)methanone]	21.9 µM	48.7 µM	2.4 µM	13.1 μl/min/1E6
O=C(c1noc(-c2cc(F)c(F)c(O)c2F)n1)N1CCCC(OCc2ccccc2)C1 (stereo not shown) [Example 94, (3-(Benzyloxy)piperidin-1-yl)(5-(2,4,5-trifluoro-3-hydroxyphenyl)-1,2,4-oxadiazol-3-yl)methanone]	> 50 µM	23.6 µM	1.2 µM	17.3 μl/min/1E6
CCCC1CCN(C(=O)c2noc(-c3cc(F)c(F)c(O)c3F)n2)C1 (stereo not shown) [Example 76, (3-Propylpyrrolidin-1-yl)(5-(2,4,5-trifluoro-3-hydroxyphenyl)-1,2,4-oxadiazol-3-yl)methanone]	19.6 µM	44.8 µM	2.6 µM	18.2 μl/min/1E6
N#Cc1c(C(=O)N2Cc3ccc(F)cc3C2)noc1-c1cc(F)c(F)c(O)c1F [Example 18, 3-(5-Fluoroisoindoline-2-carbonyl)-5-(2,4,5-trifluoro-3-hydroxyphenyl)isoxazole-4-carbonitrile]	6.2 µM	17.8 µM	0.4 µM	17.2 μl/min/1E6
O=C(c1noc(-c2cc(F)c(F)c(O)c2F)n1)N1CCO[C@@H]2CCC[C@@H]21 [Example 113, ((4aS,7aR)-Hexahydrocyclopenta[b][1,4]oxazin-4(4aH)-yl)(5-(2,4,5-trifluoro-3-hydroxyphenyl)-1,2,4-oxadiazol-3-yl)methanone]	> 50 µM	45.3 µM	4.2 µM	7.3 μl/min/1E6
C[C@@H]1C[C@H](C)CN(C(=O)c2nc(-c3cc(F)c(F)c(O)c3F)no2)C1 [Example 111, ((3R,5S)-3,5-Dimethylpiperidin-1-yl)(3-(2,4,5-trifluoro-3-hydroxyphenyl)-1,2,4-oxadiazol-5-yl)methanone]	> 50 µM	> 50 µM	4.9 µM	
